What was measured:
Settings in all cases: 72 h
[1] = tested on: U2OS; assay: drug sensitivity score (DSS) for viability; higher = more toxic; extreme values may be limits of the assay
[2] = tested on: Caco-2; assay: as above
[3] = tested on: HepG2; assay: as above
[4] = tested on: Calu-3; assay: as above
[5] = tested on: Vero E6; assay: as above
[6] = tested on: U2OS; assay: cell viability relative to DMSO; higher = less toxic
[7] = tested on: Caco-2; assay: as above
[8] = tested on: HepG2; assay: as above
[9] = tested on: Calu-3; assay: as above
[10] = tested on: Vero E6; assay: as above
[11] = tested on: U2OS; assay: relative viability EC50 (midpoint between 100% and the lowest measured viability); higher = less toxic
[12] = tested on: Caco-2; assay: as above
[13] = tested on: HepG2; assay: as above
[14] = tested on: Calu-3; assay: as above
[15] = tested on: Vero E6; assay: as above

Cc1ccc(=O)n(-c2ccc(O)cc2)c1 [F351]
drug sensitivity score [1]: 0
drug sensitivity score [2]: 0
drug sensitivity score [3]: 0
drug sensitivity score [4]: 0
drug sensitivity score [5]: 0
cell viability ([6]; 1 nM): 99.2%
cell viability ([6]; 10 nM): 97.3%
cell viability ([6]; 100 nM): 97.2%
cell viability ([6]; 1000 nM): 100%
cell viability ([6]; 10000 nM): 97.4%
cell viability ([7]; 1 nM): 92.1%
cell viability ([7]; 10 nM): 92.6%
cell viability ([7]; 100 nM): 96.7%
cell viability ([7]; 1000 nM): 100%
cell viability ([7]; 10000 nM): 93%
cell viability ([8]; 1 nM): 105%
cell viability ([8]; 10 nM): 93.1%
cell viability ([8]; 100 nM): 108%
cell viability ([8]; 1000 nM): 101%
cell viability ([8]; 10000 nM): 96.9%
cell viability ([9]; 1 nM): 90.2%
cell viability ([9]; 10 nM): 105%
cell viability ([9]; 100 nM): 96.9%
cell viability ([9]; 1000 nM): 85.2%
cell viability ([9]; 10000 nM): 97.4%
cell viability ([10]; 1 nM): 98.1%
cell viability ([10]; 10 nM): 100%
cell viability ([10]; 100 nM): 94.4%
cell viability ([10]; 1000 nM): 99.1%
cell viability ([10]; 10000 nM): 95.4%
relative viability EC50 [11]: > 10 µM
relative viability EC50 [12]: > 10 µM
relative viability EC50 [13]: > 10 µM
relative viability EC50 [14]: > 10 µM
relative viability EC50 [15]: > 10 µM

C[C@@H]1O[C@@H]1P(=O)(O)O [FOSFOMYCIN CALCIUM]
drug sensitivity score [1]: 0
drug sensitivity score [2]: 0
drug sensitivity score [3]: 0
drug sensitivity score [4]: 0
drug sensitivity score [5]: 0
cell viability ([6]; 1 nM): 103%
cell viability ([6]; 10 nM): 97.9%
cell viability ([6]; 100 nM): 103%
cell viability ([6]; 1000 nM): 98.8%
cell viability ([6]; 10000 nM): 102%
cell viability ([7]; 1 nM): 97.3%
cell viability ([7]; 10 nM): 94.5%
cell viability ([7]; 100 nM): 94.4%
cell viability ([7]; 1000 nM): 94.1%
cell viability ([7]; 10000 nM): 101%
cell viability ([8]; 1 nM): 97.6%
cell viability ([8]; 10 nM): 101%
cell viability ([8]; 100 nM): 94.8%
cell viability ([8]; 1000 nM): 111%
cell viability ([8]; 10000 nM): 97.3%
cell viability ([9]; 1 nM): 100%
cell viability ([9]; 10 nM): 104%
cell viability ([9]; 100 nM): 97.7%
cell viability ([9]; 1000 nM): 97.5%
cell viability ([9]; 10000 nM): 94.9%
cell viability ([10]; 1 nM): 105%
cell viability ([10]; 10 nM): 101%
cell viability ([10]; 100 nM): 98.7%
cell viability ([10]; 1000 nM): 99.2%
cell viability ([10]; 10000 nM): 100%
relative viability EC50 [11]: > 10 µM
relative viability EC50 [12]: > 10 µM
relative viability EC50 [13]: > 10 µM
relative viability EC50 [14]: > 10 µM
relative viability EC50 [15]: > 10 µM

N#CN=C(NCCCCCCOc1ccc(Cl)cc1)Nc1ccncc1 [GMX1778]
drug sensitivity score [1]: 29.7
drug sensitivity score [2]: 29.3
drug sensitivity score [3]: 36.6
drug sensitivity score [4]: 28.8
drug sensitivity score [5]: 17.6
cell viability ([6]; 1 nM): 102%
cell viability ([6]; 10 nM): 110%
cell viability ([6]; 100 nM): 0.1%
cell viability ([6]; 1000 nM): -0.3%
cell viability ([6]; 10000 nM): -0.5%
cell viability ([7]; 1 nM): 104%
cell viability ([7]; 10 nM): 102%
cell viability ([7]; 100 nM): 3.2%
cell viability ([7]; 1000 nM): 3.5%
cell viability ([7]; 10000 nM): 3.2%
cell viability ([8]; 1 nM): 109%
cell viability ([8]; 10 nM): 26%
cell viability ([8]; 100 nM): 19.5%
cell viability ([8]; 1000 nM): 16.3%
cell viability ([8]; 10000 nM): 8.4%
cell viability ([9]; 1 nM): 104%
cell viability ([9]; 10 nM): 102%
cell viability ([9]; 100 nM): 7.1%
cell viability ([9]; 1000 nM): 4.8%
cell viability ([9]; 10000 nM): 3.9%
cell viability ([10]; 1 nM): 98.3%
cell viability ([10]; 10 nM): 99%
cell viability ([10]; 100 nM): 101%
cell viability ([10]; 1000 nM): 1.7%
cell viability ([10]; 10000 nM): 1.2%
relative viability EC50 [11]: 0.0363 µM
relative viability EC50 [12]: 0.0332 µM
relative viability EC50 [13]: 0.0058 µM
relative viability EC50 [14]: 0.0356 µM
relative viability EC50 [15]: 0.326 µM

CC=C1C(=O)C[C@H]2[C@@H]3CCC4=CC(=O)CC[C@]4(C)[C@H]3CC[C@]12C [GR-235]
drug sensitivity score [1]: 0
drug sensitivity score [2]: 1
drug sensitivity score [3]: 0
drug sensitivity score [4]: 0
drug sensitivity score [5]: 0
cell viability ([6]; 1 nM): 100%
cell viability ([6]; 10 nM): 98.4%
cell viability ([6]; 100 nM): 102%
cell viability ([6]; 1000 nM): 98.2%
cell viability ([6]; 10000 nM): 99.1%
cell viability ([7]; 1 nM): 95.6%
cell viability ([7]; 10 nM): 96.2%
cell viability ([7]; 100 nM): 99.5%
cell viability ([7]; 1000 nM): 90.3%
cell viability ([7]; 10000 nM): 83.4%
cell viability ([8]; 1 nM): 85.2%
cell viability ([8]; 10 nM): 93.1%
cell viability ([8]; 100 nM): 95.4%
cell viability ([8]; 1000 nM): 101%
cell viability ([8]; 10000 nM): 91%
cell viability ([9]; 1 nM): 110%
cell viability ([9]; 10 nM): 89.9%
cell viability ([9]; 100 nM): 100%
cell viability ([9]; 1000 nM): 99.8%
cell viability ([9]; 10000 nM): 114%
cell viability ([10]; 1 nM): 110%
cell viability ([10]; 10 nM): 108%
cell viability ([10]; 100 nM): 97.8%
cell viability ([10]; 1000 nM): 104%
cell viability ([10]; 10000 nM): 111%
relative viability EC50 [11]: > 10 µM
relative viability EC50 [12]: > 10 µM
relative viability EC50 [13]: > 10 µM
relative viability EC50 [14]: > 10 µM
relative viability EC50 [15]: > 10 µM

O=C(Nc1ccccc1)c1cc([N+](=O)[O-])ccc1Cl [GW-9662]
drug sensitivity score [1]: 0
drug sensitivity score [2]: 0
drug sensitivity score [3]: 0
drug sensitivity score [4]: 0
drug sensitivity score [5]: 0
cell viability ([6]; 1 nM): 106%
cell viability ([6]; 10 nM): 91.7%
cell viability ([6]; 100 nM): 101%
cell viability ([6]; 1000 nM): 91.6%
cell viability ([6]; 10000 nM): 96.8%
cell viability ([7]; 1 nM): 98%
cell viability ([7]; 10 nM): 94.1%
cell viability ([7]; 100 nM): 103%
cell viability ([7]; 1000 nM): 90.1%
cell viability ([7]; 10000 nM): 93.3%
cell viability ([8]; 1 nM): 94.9%
cell viability ([8]; 10 nM): 100%
cell viability ([8]; 100 nM): 90%
cell viability ([8]; 1000 nM): 102%
cell viability ([8]; 10000 nM): 88.3%
cell viability ([9]; 1 nM): 93.7%
cell viability ([9]; 10 nM): 93.6%
cell viability ([9]; 100 nM): 101%
cell viability ([9]; 1000 nM): 100%
cell viability ([9]; 10000 nM): 96.7%
cell viability ([10]; 1 nM): 103%
cell viability ([10]; 10 nM): 106%
cell viability ([10]; 100 nM): 98.2%
cell viability ([10]; 1000 nM): 99.9%
cell viability ([10]; 10000 nM): 97.7%
relative viability EC50 [11]: > 10 µM
relative viability EC50 [12]: > 10 µM
relative viability EC50 [13]: > 10 µM
relative viability EC50 [14]: > 10 µM
relative viability EC50 [15]: > 10 µM

Oc1ccc2ccccc2c1SSc1c(O)ccc2ccccc12 [IPA-3]
drug sensitivity score [1]: 0
drug sensitivity score [2]: 0
drug sensitivity score [3]: 0
drug sensitivity score [4]: 0
drug sensitivity score [5]: 0
cell viability ([6]; 1 nM): 93.2%
cell viability ([6]; 10 nM): 96.6%
cell viability ([6]; 100 nM): 97.6%
cell viability ([6]; 1000 nM): 98.3%
cell viability ([6]; 10000 nM): 92.9%
cell viability ([7]; 1 nM): 98.9%
cell viability ([7]; 10 nM): 94.9%
cell viability ([7]; 100 nM): 91%
cell viability ([7]; 1000 nM): 95.7%
cell viability ([7]; 10000 nM): 92.9%
cell viability ([8]; 1 nM): 104%
cell viability ([8]; 10 nM): 109%
cell viability ([8]; 100 nM): 89.2%
cell viability ([8]; 1000 nM): 106%
cell viability ([8]; 10000 nM): 103%
cell viability ([9]; 1 nM): 96.3%
cell viability ([9]; 10 nM): 109%
cell viability ([9]; 100 nM): 99.8%
cell viability ([9]; 1000 nM): 107%
cell viability ([9]; 10000 nM): 111%
cell viability ([10]; 1 nM): 99.7%
cell viability ([10]; 10 nM): 101%
cell viability ([10]; 100 nM): 102%
cell viability ([10]; 1000 nM): 102%
cell viability ([10]; 10000 nM): 95.8%
relative viability EC50 [11]: > 10 µM
relative viability EC50 [12]: > 10 µM
relative viability EC50 [13]: > 10 µM
relative viability EC50 [14]: > 10 µM
relative viability EC50 [15]: > 10 µM

CN([C@@H](Cc1ccc(OS(=O)(=O)c2cccc3cnccc23)cc1)C(=O)N1CCN(c2ccccc2)CC1)S(=O)(=O)c1cccc2cnccc12 [KN-62]
drug sensitivity score [1]: 0
drug sensitivity score [2]: 0
drug sensitivity score [3]: 0
drug sensitivity score [4]: 0
drug sensitivity score [5]: 0
cell viability ([6]; 1 nM): 101%
cell viability ([6]; 10 nM): 100%
cell viability ([6]; 100 nM): 99.9%
cell viability ([6]; 1000 nM): 95.4%
cell viability ([6]; 10000 nM): 92.3%
cell viability ([7]; 1 nM): 93.4%
cell viability ([7]; 10 nM): 119%
cell viability ([7]; 100 nM): 112%
cell viability ([7]; 1000 nM): 89.6%
cell viability ([7]; 10000 nM): 101%
cell viability ([8]; 1 nM): 123%
cell viability ([8]; 10 nM): 110%
cell viability ([8]; 100 nM): 105%
cell viability ([8]; 1000 nM): 101%
cell viability ([8]; 10000 nM): 95.7%
cell viability ([9]; 1 nM): 105%
cell viability ([9]; 10 nM): 95.8%
cell viability ([9]; 100 nM): 98%
cell viability ([9]; 1000 nM): 93.9%
cell viability ([9]; 10000 nM): 91.1%
cell viability ([10]; 1 nM): 104%
cell viability ([10]; 10 nM): 96.6%
cell viability ([10]; 100 nM): 98.9%
cell viability ([10]; 1000 nM): 96.3%
cell viability ([10]; 10000 nM): 94.8%
relative viability EC50 [11]: > 10 µM
relative viability EC50 [12]: > 10 µM
relative viability EC50 [13]: > 10 µM
relative viability EC50 [14]: > 10 µM
relative viability EC50 [15]: > 10 µM

Reference: the supplement of paper PMC13380429
